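Tested at 5 concentrations; 48 h exposure; 96-well plates; endpoints linearly interpolated, else capped at highest concentration. The concentration for 50% growth inhibition is given as GI50. TGI is the concentration that stops growth completely.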

The test system of the first experiment is A498 renal. Briefly: growth of human tumour cells (NCI), 48 h.
Turning to `CCc1c(Oc2ccc(C(C)=O)cc2)c2ccccc2[nH]c1=O`, the GI50 is 17.2 µM and the TGI was 32 µM.
`Cn1c(N2NC(=O)C(N=Nc3ccc(S(N)(=O)=O)cc3)C2=O)nc(-c2ccco2)c(C#N)c1=O` (stereo unspecified): the GI50 was greater than 50 µM and the TGI is greater than 50 µM.
With `NCC(=O)NS(=O)(=O)OC[C@H]1O[C@@H](n2cnc3c(N)ncnc32)[C@H](O)[C@@H]1O`, the GI50 was 1.6 µM and the TGI was determined as 3.21 µM.
Consider `Cc1c(C(=O)N/N=C/c2ccc(Cl)cc2)nnn1-c1ccnc2c(C(F)(F)F)cccc12`, for which the GI50 is 15.9 µM and the TGI turned out to be 45.1 µM.
As to `Cc1nn(CN2CCN(C)CC2)c(=S)n1/N=C/c1cccc2ccccc12`, the GI50 is 16.7 µM and the TGI was 34.7 µM.
In the case of `N#C/C(=C1C=C/C(=N/O)C(Br)=C/1)c1ccccc1`, the GI50 was 2.57 µM and the TGI was 16.7 µM.
Consider `CN(C)CCNc1cc(-c2ccccc2)nc2ccccc12`, for which the GI50 is 2.01 µM and the TGI amounted to 13.6 µM.
On the same counts, the results for `COc1cccc(/C=N/NC(=O)c2ccccc2Nc2ccnc(C(F)(F)F)c2)c1O` are 5.11 µM and greater than 42.8 µM.
Regarding `CN1CCN(Cc2ccc(NC(=O)c3cncc(C#Cc4cnc(N)c5ccc(C#N)cc45)c3)cc2C(F)(F)F)CC1`, the GI50 is 0.0208 µM and the TGI was 0.478 µM.
Turning to `COC(=O)c1cc2c3ccccc3[nH]c2c2ncccc12`, the GI50 is greater than 100 µM and the TGI was greater than 100 µM.
Consider `O=C1c2cccc(NCCN=Cc3cc(O)ccc3O)c2C(=O)c2c(NCCN=Cc3cc(O)ccc3O)cccc21`, for which the GI50 was 1.41 µM and the TGI is 3.1 µM.

Another experiment concerns BT-549 breast. Kind of experiment: growth of human tumour cells (NCI), 48 h.
In the case of `CCc1c(Oc2ccc(C(C)=O)cc2)c2ccccc2[nH]c1=O`, the GI50 is 17.6 µM and the TGI stood at 70.8 µM.
As to `Cn1c(N2NC(=O)C(N=Nc3ccc(S(N)(=O)=O)cc3)C2=O)nc(-c2ccco2)c(C#N)c1=O` (stereo unspecified), the GI50 is 8.67 µM and the TGI worked out at 40.6 µM.
On to `NCC(=O)NS(=O)(=O)OC[C@H]1O[C@@H](n2cnc3c(N)ncnc32)[C@H](O)[C@@H]1O`, for which the GI50 was 2.34 µM and the TGI is 5.56 µM.
On to `Cc1c(C(=O)N/N=C/c2ccc(Cl)cc2)nnn1-c1ccnc2c(C(F)(F)F)cccc12`, for which the GI50 is 22.9 µM and the TGI was determined as 52.3 µM.
For the compound `Cc1nn(CN2CCN(C)CC2)c(=S)n1/N=C/c1cccc2ccccc12`, the GI50 was 21.1 µM and the TGI stood at 47.3 µM.
On the same counts, the results for `N#C/C(=C1C=C/C(=N/O)C(Br)=C/1)c1ccccc1` are 9.59 µM and 27.3 µM.
`CN(C)CCNc1cc(-c2ccccc2)nc2ccccc12`: the GI50 is 11.5 µM and the TGI was determined as 28.8 µM.
On to `COc1cccc(/C=N/NC(=O)c2ccccc2Nc2ccnc(C(F)(F)F)c2)c1O`, for which the GI50 was 0.567 µM and the TGI was 54.3 µM.
In the same order, the values of `CN1CCN(Cc2ccc(NC(=O)c3cncc(C#Cc4cnc(N)c5ccc(C#N)cc45)c3)cc2C(F)(F)F)CC1` are 0.729 µM and 10.8 µM.
Consider `COC(=O)c1cc2c3ccccc3[nH]c2c2ncccc12`, for which the GI50 was 17.9 µM and the TGI was 78.8 µM.
Take `O=C1c2cccc(NCCN=Cc3cc(O)ccc3O)c2C(=O)c2c(NCCN=Cc3cc(O)ccc3O)cccc21`: the GI50 was 1.89 µM and the TGI came out at 7.77 µM.

Another experiment relates to IGROV1 ovarian. Briefly: growth of human tumour cells (NCI), 48 h.
As for `CCc1c(Oc2ccc(C(C)=O)cc2)c2ccccc2[nH]c1=O`, the GI50 was 28.8 µM and the TGI is greater than 100 µM.
As for `Cn1c(N2NC(=O)C(N=Nc3ccc(S(N)(=O)=O)cc3)C2=O)nc(-c2ccco2)c(C#N)c1=O` (stereo unspecified), the GI50 is greater than 50 µM and the TGI is greater than 50 µM.
As to `NCC(=O)NS(=O)(=O)OC[C@H]1O[C@@H](n2cnc3c(N)ncnc32)[C@H](O)[C@@H]1O`, the GI50 is 3.04 µM and the TGI was 7.68 µM.
Consider `Cc1c(C(=O)N/N=C/c2ccc(Cl)cc2)nnn1-c1ccnc2c(C(F)(F)F)cccc12`, for which the GI50 is 9.06 µM and the TGI is 37 µM.
Consider `Cc1nn(CN2CCN(C)CC2)c(=S)n1/N=C/c1cccc2ccccc12`, for which the GI50 was 19.4 µM and the TGI turned out to be 55.1 µM.
As to `N#C/C(=C1C=C/C(=N/O)C(Br)=C/1)c1ccccc1`, the GI50 is 2.16 µM and the TGI stood at 12.2 µM.
On the same counts, the results for `CN(C)CCNc1cc(-c2ccccc2)nc2ccccc12` are 6.57 µM and 35.1 µM.
Turning to `COc1cccc(/C=N/NC(=O)c2ccccc2Nc2ccnc(C(F)(F)F)c2)c1O`, the GI50 is 0.0234 µM and the TGI was 0.0745 µM.
In the same order, the values of `COC(=O)c1cc2c3ccccc3[nH]c2c2ncccc12` are 2.09 µM and greater than 100 µM.
Regarding `O=C1c2cccc(NCCN=Cc3cc(O)ccc3O)c2C(=O)c2c(NCCN=Cc3cc(O)ccc3O)cccc21`, the GI50 is 1.19 µM and the TGI was determined as 4.59 µM.

A further experiment deals with M14 melanoma. Briefly: growth of human tumour cells (NCI), 48 h.
On to `CCc1c(Oc2ccc(C(C)=O)cc2)c2ccccc2[nH]c1=O`, for which the GI50 is 18.5 µM and the TGI was found to be 65.9 µM.
With `Cn1c(N2NC(=O)C(N=Nc3ccc(S(N)(=O)=O)cc3)C2=O)nc(-c2ccco2)c(C#N)c1=O` (stereo unspecified), the GI50 was 21.9 µM and the TGI was greater than 50 µM.
On to `NCC(=O)NS(=O)(=O)OC[C@H]1O[C@@H](n2cnc3c(N)ncnc32)[C@H](O)[C@@H]1O`, for which the GI50 was 1.81 µM and the TGI is 3.61 µM.
As to `Cc1c(C(=O)N/N=C/c2ccc(Cl)cc2)nnn1-c1ccnc2c(C(F)(F)F)cccc12`, the GI50 was 4.45 µM and the TGI is 18.9 µM.
As to `Cc1nn(CN2CCN(C)CC2)c(=S)n1/N=C/c1cccc2ccccc12`, the GI50 is 18.6 µM and the TGI worked out at 39.3 µM.
In the same order, the values of `N#C/C(=C1C=C/C(=N/O)C(Br)=C/1)c1ccccc1` are 3.79 µM and 20 µM.
In the same order, the values of `CN(C)CCNc1cc(-c2ccccc2)nc2ccccc12` are 10.3 µM and 24.8 µM.
In the case of `COc1cccc(/C=N/NC(=O)c2ccccc2Nc2ccnc(C(F)(F)F)c2)c1O`, the GI50 is 0.375 µM and the TGI was greater than 23.2 µM.
As for `CN1CCN(Cc2ccc(NC(=O)c3cncc(C#Cc4cnc(N)c5ccc(C#N)cc45)c3)cc2C(F)(F)F)CC1`, the GI50 was 0.0151 µM and the TGI was found to be 0.258 µM.
For the compound `O=C1c2cccc(NCCN=Cc3cc(O)ccc3O)c2C(=O)c2c(NCCN=Cc3cc(O)ccc3O)cccc21`, the GI50 is 2.01 µM and the TGI is 4.59 µM.

A further experiment concerns MDA-MB-231 breast. Briefly: growth of human tumour cells (NCI), 48 h.
In the case of `CCc1c(Oc2ccc(C(C)=O)cc2)c2ccccc2[nH]c1=O`, the GI50 was 7.03 µM and the TGI was 39.1 µM.
As to `Cn1c(N2NC(=O)C(N=Nc3ccc(S(N)(=O)=O)cc3)C2=O)nc(-c2ccco2)c(C#N)c1=O` (stereo unspecified), the GI50 was 28.6 µM and the TGI was greater than 50 µM.
In the case of `NCC(=O)NS(=O)(=O)OC[C@H]1O[C@@H](n2cnc3c(N)ncnc32)[C@H](O)[C@@H]1O`, the GI50 is 0.526 µM and the TGI was determined as 2.62 µM.
Consider `Cc1c(C(=O)N/N=C/c2ccc(Cl)cc2)nnn1-c1ccnc2c(C(F)(F)F)cccc12`, for which the GI50 is 2.17 µM and the TGI is 6.08 µM.
`Cc1nn(CN2CCN(C)CC2)c(=S)n1/N=C/c1cccc2ccccc12`: the GI50 was 19.3 µM and the TGI came out at 44.4 µM.
Regarding `N#C/C(=C1C=C/C(=N/O)C(Br)=C/1)c1ccccc1`, the GI50 is 2.27 µM and the TGI was found to be 6.73 µM.
Take `CN(C)CCNc1cc(-c2ccccc2)nc2ccccc12`: the GI50 is 7.45 µM and the TGI turned out to be 32.5 µM.
For `COc1cccc(/C=N/NC(=O)c2ccccc2Nc2ccnc(C(F)(F)F)c2)c1O`, the GI50 was 0.423 µM and the TGI was greater than 100 µM.
For the compound `CN1CCN(Cc2ccc(NC(=O)c3cncc(C#Cc4cnc(N)c5ccc(C#N)cc45)c3)cc2C(F)(F)F)CC1`, the GI50 was 0.037 µM and the TGI is 0.228 µM.
As for `COC(=O)c1cc2c3ccccc3[nH]c2c2ncccc12`, the GI50 was 63.9 µM and the TGI was greater than 100 µM.
`O=C1c2cccc(NCCN=Cc3cc(O)ccc3O)c2C(=O)c2c(NCCN=Cc3cc(O)ccc3O)cccc21`: the GI50 is 0.877 µM and the TGI turned out to be 2.25 µM.

The values above are taken from PubChem BioAssay (NCI).
